Source: ChEMBL document CHEMBL1132786, “Chemical modification of nodulisporic acid A: preliminary structure-activity relationships” (2000)

Test system: Ctenocephalides felis
Experiment: Systemic activity against adult cat fleas (Ctenocephalides felis)
Type: functional

C=C(C)[C@H]1C(=O)c2c3c(cc4c5c(n1c24)[C@@]1(C)C(CC[C@H]2[C@](C)(/C=C/C=C(\C)C(=O)Nc4ccc(F)cc4)[C@@H](O)CC[C@@]21C)C5)C1=CC(C)(C)OC(C)(C)C1[C@@H]3O (stereo not given in full)
Effective concentration, systemic activity against adult cat fleas: 1 p.p.m.

C=C(C)[C@H]1C(=O)c2c3c(cc4c5c(n1c24)[C@@]1(C)C(CC[C@H]2[C@](C)(/C=C/C=C(\C)C(=O)NC(C)(C)C(=O)OC)[C@@H](O)CC[C@@]21C)C5)C1=CC(C)(C)OC(C)(C)C1[C@@H]3O (stereo not given in full)
Effective concentration, systemic activity against adult cat fleas: 1 p.p.m.

C=C(C)[C@H]1C(=O)c2c3c(cc4c5c(n1c24)[C@@]1(C)C(CC[C@H]2[C@](C)(/C=C/C=C(\C)C(=O)NC)[C@@H](O)CC[C@@]21C)C5)C1=CC(C)(C)OC(C)(C)C1[C@@H]3O (stereo not given in full)
Effective concentration, systemic activity against adult cat fleas: ~0.1 p.p.m.

C=C(C)[C@H]1C(=O)c2c3c(cc4c5c(n1c24)[C@@]1(C)C(CC[C@H]2[C@](C)(/C=C/C=C(\C)C(=O)OC)[C@@H](O)CC[C@@]21C)C5)C1=CC(C)(C)OC(C)(C)C1[C@@H]3O (stereo not given in full)
Effective concentration, systemic activity against adult cat fleas: ~10 p.p.m.

C=C(C)[C@H]1C(=O)c2c3c(cc4c5c(n1c24)[C@@]1(C)C(CC[C@H]2[C@](C)(/C=C/C=C(\C)C(=O)NCC(N)=O)[C@@H](O)CC[C@@]21C)C5)C1=CC(C)(C)OC(C)(C)C1[C@@H]3O (stereo not given in full)
Effective concentration, systemic activity against adult cat fleas: 10 p.p.m.

C=C(C)[C@H]1C(=O)c2c3c(cc4c5c(n1c24)[C@@]1(C)C(CC[C@H]2[C@](C)(/C=C/C=C(\C)C(=O)N(CC)CCC)[C@@H](O)CC[C@@]21C)C5)C1=CC(C)(C)OC(C)(C)C1[C@@H]3O (stereo not given in full)
Effective concentration, systemic activity against adult cat fleas: ~0.1 p.p.m.

C=C(C)[C@H]1C(=O)c2c3c(cc4c5c(n1c24)[C@@]1(C)C(CC[C@H]2[C@](C)(/C=C/C=C(\C)C(=O)OCCOCCO)[C@@H](O)CC[C@@]21C)C5)C1=CC(C)(C)OC(C)(C)C1[C@@H]3O (stereo not given in full)
Effective concentration, systemic activity against adult cat fleas: 0.1 p.p.m.

C=C(C)[C@H]1C(=O)c2c3c(cc4c5c(n1c24)[C@@]1(C)C(CC[C@H]2[C@](C)(/C=C/C=C(\C)C(=O)N(C)C)[C@@H](O)CC[C@@]21C)C5)C1=CC(C)(C)OC(C)(C)C1[C@@H]3O (stereo not given in full)
Effective concentration, systemic activity against adult cat fleas: ~0.1 p.p.m.

C=C(C)[C@H]1C(=O)c2c3c(cc4c5c(n1c24)[C@@]1(C)C(CC[C@H]2[C@](C)(/C=C/C=C(\C)C(=O)NCc4ccc(Cl)cc4)[C@@H](O)CC[C@@]21C)C5)C1=CC(C)(C)OC(C)(C)C1[C@@H]3O (stereo not given in full)
Effective concentration, systemic activity against adult cat fleas: 0.1 p.p.m.

C=C(C)[C@H]1C(=O)c2c3c(cc4c5c(n1c24)[C@@]1(C)C(CC[C@H]2[C@](C)(/C=C/C=C(\C)C(=O)N4CCCCC4)[C@@H](O)CC[C@@]21C)C5)C1=CC(C)(C)OC(C)(C)C1[C@@H]3O (stereo not given in full)
Effective concentration, systemic activity against adult cat fleas: ~1 p.p.m.

C=C(C)[C@H]1C(=O)c2c3c(cc4c5c(n1c24)[C@@]1(C)C(CC[C@H]2[C@](C)(C=O)[C@@H](O)CC[C@@]21C)C5)C1=CC(C)(C)OC(C)(C)C1[C@@H]3O (stereo not given in full)
Effective concentration, systemic activity against adult cat fleas: ~10 p.p.m.

C=C(C)[C@H]1C(=O)c2c3c(cc4c5c(n1c24)[C@@]1(C)C(CC[C@H]2[C@](C)(/C=C/C=C(\C)C(=O)NCCCCCC)[C@@H](O)CC[C@@]21C)C5)C1=CC(C)(C)OC(C)(C)C1[C@@H]3O (stereo not given in full)
Effective concentration, systemic activity against adult cat fleas: ~0.5 p.p.m.

C=C(C)[C@H]1C(=O)c2c3c(cc4c5c(n1c24)[C@@]1(C)C(CC[C@H]2[C@](C)(/C=C/C=O)[C@@H](O)CC[C@@]21C)C5)C1=CC(C)(C)OC(C)(C)C1[C@@H]3O (stereo not given in full)
Effective concentration, systemic activity against adult cat fleas: ~10 p.p.m.

C=C(C)[C@H]1C(=O)c2c3c(cc4c5c(n1c24)[C@@]1(C)C(CC[C@H]2[C@](C)(/C=C/C=C(\C)C(=O)OCCCO)[C@@H](O)CC[C@@]21C)C5)C1=CC(C)(C)OC(C)(C)C1[C@@H]3O (stereo not given in full)
Effective concentration, systemic activity against adult cat fleas: 10 p.p.m.

C=C(C)[C@H]1C(=O)c2c3c(cc4c5c(n1c24)[C@@]1(C)C(CC[C@H]2[C@](C)(/C=C/C=C(\C)C(=O)NCCO)[C@@H](O)CC[C@@]21C)C5)C1=CC(C)(C)OC(C)(C)C1[C@@H]3O (stereo not given in full)
Effective concentration, systemic activity against adult cat fleas: 0.5 p.p.m.

C=C(C)[C@H]1C(=O)c2c3c(cc4c5c(n1c24)[C@@]1(C)C(CC[C@H]2[C@](C)(/C=C/C=C(\C)C(=O)OCCO)[C@@H](O)CC[C@@]21C)C5)C1=CC(C)(C)OC(C)(C)C1[C@@H]3O (stereo not given in full)
Effective concentration, systemic activity against adult cat fleas: ~1 p.p.m.

C=C(C)[C@H]1C(=O)c2c3c(cc4c5c(n1c24)[C@@]1(C)C(CC[C@H]2[C@](C)(/C=C/C=C(\C)C(N)=O)[C@@H](O)CC[C@@]21C)C5)C1=CC(C)(C)OC(C)(C)C1[C@@H]3O (stereo not given in full)
Effective concentration, systemic activity against adult cat fleas: ~0.1 p.p.m.

C=C(C)[C@H]1C(=O)c2c3c(cc4c5c(n1c24)[C@@]1(C)C(CC[C@H]2[C@](C)(/C=C/C=C(\C)C(=O)SCC)[C@@H](O)CC[C@@]21C)C5)C1=CC(C)(C)OC(C)(C)C1[C@@H]3O (stereo not given in full)
Effective concentration, systemic activity against adult cat fleas: >1 p.p.m.

C=C(C)[C@H]1C(=O)c2c3c(cc4c5c(n1c24)[C@@]1(C)C(CC[C@H]2[C@](C)(/C=C/C=C(\C)C(=O)NCCN(C)C)[C@@H](O)CC[C@@]21C)C5)C1=CC(C)(C)OC(C)(C)C1[C@@H]3O (stereo not given in full)
Effective concentration, systemic activity against adult cat fleas: 10 p.p.m.

C=C(C)[C@H]1C(=O)c2c3c(cc4c5c(n1c24)[C@@]1(C)C(CC[C@H]2[C@](C)(/C=C/C=C(\C)C(=O)N4CCN(C)CC4)[C@@H](O)CC[C@@]21C)C5)C1=CC(C)(C)OC(C)(C)C1[C@@H]3O (stereo not given in full)
Effective concentration, systemic activity against adult cat fleas: 1 p.p.m.

C=C(C)[C@H]1C(=O)c2c3c(cc4c5c(n1c24)[C@@]1(C)C(CC[C@H]2[C@](C)(/C=C/C=C(\C)C(=O)N4CCN(C(=O)OCC)CC4)[C@@H](O)CC[C@@]21C)C5)C1=CC(C)(C)OC(C)(C)C1[C@@H]3O (stereo not given in full)
Effective concentration, systemic activity against adult cat fleas: 0.1 p.p.m.

C=C(C)[C@H]1C(=O)c2c3c(cc4c5c(n1c24)[C@@]1(C)C(CC[C@H]2[C@](C)(/C=C/C=C(\C)C(=O)NCCC(=O)O)[C@@H](O)CC[C@@]21C)C5)C1=CC(C)(C)OC(C)(C)C1[C@@H]3O (stereo not given in full)
Effective concentration, systemic activity against adult cat fleas: >10 p.p.m.

C=C(C)[C@H]1C(=O)c2c3c(cc4c5c(n1c24)[C@@]1(C)C(CC[C@H]2[C@](C)(/C=C/C=C(\C)C(=O)NC(C)(C)C(=O)N(C)C)[C@@H](O)CC[C@@]21C)C5)C1=CC(C)(C)OC(C)(C)C1[C@@H]3O (stereo not given in full)
Effective concentration, systemic activity against adult cat fleas: 0.01 p.p.m.

C=C(C)[C@H]1C(=O)c2c3c(cc4c5c(n1c24)[C@@]1(C)C(CC[C@H]2[C@](C)(/C=C/C=C(\C)C(=O)O)[C@@H](O)CC[C@@]21C)C5)C1=CC(C)(C)OC(C)(C)C1[C@@H]3O (stereo not given in full) [NOD ACID A]
Effective concentration, systemic activity against adult cat fleas: 1 p.p.m.

C=C(C)[C@H]1C(=O)c2c3c(cc4c5c(n1c24)[C@@]1(C)C(CC[C@H]2[C@](C)(/C=C/C=C(\C)C(=O)N4CCN(S(C)(=O)=O)CC4)[C@@H](O)CC[C@@]21C)C5)C1=CC(C)(C)OC(C)(C)C1[C@@H]3O (stereo not given in full) [NODULISPORAMIDE]
Effective concentration, systemic activity against adult cat fleas: ~0.01 p.p.m.
